The values below come from patent US10954214B2 (Janssen Pharmaceutica NV, priority 2016, dated 2021).

Structures are written as SMILES. pIC50: −log10 of the molar value.

One experiment concerns OCI-Ly3 cells. In words: 4-day proliferation assay, OCI-Ly3. Type of experiment: cell-based, human. The settings on record: Homo sapiens, 96 h, 4 days incubation, CellTiterGLO, read-out: Anti-proliferation: OCI-LY-3 IC50. In outline: (§1)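 Each line was plated at 10,000 cells per well for linear growth, with no beta-mercaptoethanol during the assay. OCI-Ly3 cells were below passage 10.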
On the technique in general: In ATP-based viability assays light output follows the ATP content of the culture.

For experiment [1], the target named is full-length MALT1 protein (Strep-MALT1(1-824)-His) (Homo sapiens (Human), UniProt Q9UDY8). Kind of experiment: MALT1 Biochemical Protease Assay (Ac-LRSR-AMC substrate). As to conditions: 10 nM FL MALT1, 200 μM Ac-LRSR-AMC, 4 h at RT; read-out: MALT1_Biochemical activity (Ac-LRSR-amc) IC50. In short, it runs like this:
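Fluorescence from AMC release off the quenched LRSR substrate was read after a 4 h reaction at RT. Values were normalised to no-enzyme and uninhibited controls and fitted for IC50 and Hill coefficient.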

Experiment [2] concerns IL6 secretion by OCI-LY3 ABC-DLBCL cells. In words: Human IL6 Mesoscale assay (OCI-LY3). As to conditions: Homo sapiens, 24 h. It is filed as cell-based. In short, it runs like this: (§2)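 100,000 cells/well treated with compound in 9 twofold steps from 15 μM to 58.6 nM (0.3% DMSO) for 24 h at 37° C; supernatant cytokine measured by MSD electrochemiluminescence sandwich immunoassay. DMSO wells set maximum signal, BTK inhibitor RN486 (30 nM to 131 pM) set maximum inhibition.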

Experiment [3] deals with IL10 secretion by OCI-LY3 ABC-DLBCL cells. In words: Human IL10 Mesoscale assay (OCI-LY3). It is filed as cell-based. As to conditions: Homo sapiens, 24 h. In short, it runs like this: as §2
The next experiment relates to TMD8 cells. Kind of experiment: 4-day proliferation assay, TMD8. Type of experiment: cell-based. As to conditions: Homo sapiens, 96 h, 4 days incubation, CellTiterGLO, read-out: Anti-proliferation: TMD-8 IC50. In short, it runs like this:
as §1

Experiment [4] relates to IL6 secretion by TMD8 ABC-DLBCL cells. Kind of experiment: Human IL6 Mesoscale assay (TMD-8). It is filed as cell-based. The settings on record: Homo sapiens, TMD8; TMD-8 cells, 24 h. In outline:
as §2

Experiment [5] concerns IL10 secretion by TMD8 ABC-DLBCL cells. Kind of experiment: Human IL10 Mesoscale assay (TMD-8). It is filed as cell-based. The settings on record: Homo sapiens, TMD8; TMD-8 cells, 24 h. In short, it runs like this: as §2

Sequence of full-length MALT1 protein (Strep-MALT1(1-824)-His) (Q9UDY8 whole entry): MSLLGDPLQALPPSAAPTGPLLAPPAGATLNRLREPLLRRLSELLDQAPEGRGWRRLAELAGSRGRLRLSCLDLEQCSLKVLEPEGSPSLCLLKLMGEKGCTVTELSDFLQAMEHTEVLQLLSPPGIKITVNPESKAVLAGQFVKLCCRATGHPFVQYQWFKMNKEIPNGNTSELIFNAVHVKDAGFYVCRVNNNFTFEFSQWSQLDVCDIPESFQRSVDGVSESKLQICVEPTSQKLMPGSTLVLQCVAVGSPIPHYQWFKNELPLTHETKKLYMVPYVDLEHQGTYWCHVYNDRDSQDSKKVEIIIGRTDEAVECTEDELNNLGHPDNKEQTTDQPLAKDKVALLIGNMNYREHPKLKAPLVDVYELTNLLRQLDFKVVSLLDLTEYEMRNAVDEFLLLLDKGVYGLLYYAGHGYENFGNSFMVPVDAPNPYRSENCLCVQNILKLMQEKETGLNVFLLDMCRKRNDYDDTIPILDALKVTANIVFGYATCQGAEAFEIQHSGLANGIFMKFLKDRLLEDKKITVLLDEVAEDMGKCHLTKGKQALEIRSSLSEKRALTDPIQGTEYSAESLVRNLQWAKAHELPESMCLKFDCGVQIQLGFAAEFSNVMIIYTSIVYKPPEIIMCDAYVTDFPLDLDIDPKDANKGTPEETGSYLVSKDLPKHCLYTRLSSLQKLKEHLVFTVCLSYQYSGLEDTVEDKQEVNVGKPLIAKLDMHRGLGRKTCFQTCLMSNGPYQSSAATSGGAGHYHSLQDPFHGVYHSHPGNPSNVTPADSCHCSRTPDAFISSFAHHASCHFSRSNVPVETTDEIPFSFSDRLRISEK

For the compound `Cc1nc(-n2nccn2)c(Cl)cc1NC(=O)c1cnn(-c2cccn3nccc23)c1C(F)(F)F`, the pIC50 with OCI-Ly3 cells was 6.19; in experiment [1], 7.59; in experiment [2], 6.94; in experiment [3] it was 7.04; in the experiment with TMD8 cells, 5.52.

With `O=C(O)c1cnn(-c2ncc(NC(=O)c3cnn(-c4cccc5ncccc45)c3C(F)(F)F)cc2Cl)n1` [Cpd 109, 2-(3-chloro-5-(1-(quinolin-5-yl)-5-(trifluoromethyl)-1H-pyrazole-4-carboxamido)pyridin-2-yl)-2H-1,2,3-triazole-4-carboxylic acid], the pIC50 is < 4.70 in the experiment with OCI-Ly3 cells; 8.00 in experiment [1]; 7.55 in experiment [2]; 7.51 in experiment [3]; < 4.70 in the experiment with TMD8 cells.

As for `Nc1ncc(-n2ncc(C(=O)Nc3cnc(-n4nccn4)c(Cl)c3)c2C(F)(F)F)c2cccc(F)c12` [Cpd 110, 1-(1-amino-8-fluoroisoquinolin-4-yl)-N-(5-chloro-6-(2H-1,2,3-triazol-2-yl)pyridin-3-yl)-5-(trifluoromethyl)-1H-pyrazole-4-carboxamide], the pIC50 is 6.66 in the experiment with OCI-Ly3 cells; 7.72 in experiment [1]; 7.60 in experiment [2]; 7.62 in experiment [3]; 5.84 in the experiment on TMD8 cells.

Regarding `O=C(Nc1cnc(-n2cc(CO)cn2)c(Cl)c1)c1cnn(-c2cccc3c(=O)[nH]ccc23)c1C(F)(F)F` [Cpd 182, N-(5-chloro-6-(4-(hydroxymethyl)-1H-pyrazol-1-yl)pyridin-3-yl)-1-(1-oxo-1,2-dihydroisoquinolin-5-yl)-5-(trifluoromethyl)-1H-pyrazole-4-carboxamide], the pIC50 is 5.50 in the experiment on OCI-Ly3 cells; 7.46 in experiment [1]; 5.12 in experiment [4]; 5.28 in the experiment with TMD8 cells; 5.60 in experiment [5].

In the case of `Cn1nc(-c2ncc(NC(=O)c3cnn(-c4cccc5c(=O)[nH]ccc45)c3C(F)(F)F)cc2Cl)cc1N` [Cpd 183, N-(6-(5-amino-1-methyl-1H-pyrazol-3-yl)-5-chloropyridin-3-yl)-1-(1-oxo-1,2-dihydroisoquinolin-5-yl)-5-(trifluoromethyl)-1H-pyrazole-4-carboxamide], the pIC50 is 5.45 in the experiment with OCI-Ly3 cells; 7.46 in experiment [1]; 5.18 in experiment [4]; < 4.70 in the experiment with TMD8 cells; 5.67 in experiment [5].

As to `O=C(Nc1cnc(-n2nccn2)c(Cl)c1)c1cnn(-c2c[nH]c(=O)c3c(F)cccc23)c1C(F)(F)F` [Cpd 184, N-(5-chloro-6-(2H-1,2,3-triazol-2-yl)pyridin-3-yl)-1-(8-fluoro-1-oxo-1,2-dihydroisoquinolin-4-yl)-5-(trifluoromethyl)-1H-pyrazole-4-carboxamide], the pIC50 in the experiment with OCI-Ly3 cells was 6.23; in experiment [1] it was 7.49; in experiment [4], 5.37; in the experiment with TMD8 cells, 5.22; in experiment [5] it was 6.00.

Turning to `O=C(Nc1cnc(-n2nccn2)c(Cl)c1)c1cnn(-c2ccc(F)c3nccn23)c1C(F)(F)F` [Cpd 202, N-(5-chloro-6-(2H-1,2,3-triazol-2-yl)pyridin-3-yl)-1-(8-fluoroimidazo[1,2-a]pyridin-5-yl)-5-(trifluoromethyl)-1H-pyrazole-4-carboxamide], the pIC50 in the experiment with OCI-Ly3 cells is 5.87; in experiment [1] it was 7.29; in experiment [4], 5.30; in the experiment on TMD8 cells, 5.63; in experiment [5], 5.53.

`N#Cc1cc(NC(=O)c2cnn(-c3ccc(F)c4nccn34)c2C(F)(F)F)cnc1-n1nccn1` [Cpd 204, N-(5-cyano-6-(2H-1,2,3-triazol-2-yl)pyridin-3-yl)-1-(8-fluoroimidazo[1,2-a]pyridin-5-yl)-5-(trifluoromethyl)-1H-pyrazole-4-carboxamide]: the pIC50 with OCI-Ly3 cells is 5.76; in experiment [1], 7.46; in experiment [4] it was 6.28; with TMD8 cells it was 5.23; in experiment [5] it was 5.94.

Turning to `O=C(Nc1cnc(-n2nccn2)c(Cl)c1)c1cnn(-c2cccc3nc(Cl)ccc23)c1C(F)(F)F` [Cpd 221, N-(5-chloro-6-(2H-1,2,3-triazol-2-yl)pyridin-3-yl)-1-(2-chloroquinolin-5-yl)-5-(trifluoromethyl)-1H-pyrazole-4-carboxamide], the pIC50 is 6.04 in the experiment with OCI-Ly3 cells; 5.69 in experiment [1]; 6.48 in experiment [4]; 5.59 in the experiment with TMD8 cells; 6.48 in experiment [5].

For `N#Cc1cc(NC(=O)c2cnn(-c3ccc(F)c4ccccc34)c2C(F)(F)F)cnc1-n1nccn1` [Cpd 312, N-(5-cyano-6-(2H-1,2,3-triazol-2-yl)pyridin-3-yl)-1-(4-fluoronaphthal-1-yl)-5-(trifluoromethyl)-1H-pyrazole-4-carboxamide], the pIC50 was 6.29 in the experiment with OCI-Ly3 cells; 7.31 in experiment [1]; 5.08 in experiment [4]; 6.30 in the experiment with TMD8 cells; 5.61 in experiment [5].

Consider `COC(=O)c1ccc(NC(=O)c2cnn(-c3cccc4ncccc34)c2C(F)(F)F)cc1C#N` [Cpd 313, methyl 2-cyano-4-(1-(quinolin-5-yl)-5-(trifluoromethyl)-1H-pyrazole-4-carboxamido)benzoate], for which the pIC50 in the experiment on OCI-Ly3 cells was 6.03; in experiment [1] it was 7.37; in experiment [4], 5.14; in the experiment on TMD8 cells it was 5.10; in experiment [5] it was 5.38.

For `O=C(Nc1cnc(-n2nccn2)c(Cl)c1)c1cnn(-c2cnc(CO)c3ccccc23)c1C(F)(F)F` [Cpd 385, N-(5-chloro-6-(2H-1,2,3-triazol-2-yl)pyridin-3-yl)-1-(1-(hydroxymethyl)isoquinolin-4-yl)-5-(trifluoromethyl)-1H-pyrazole-4-carboxamide], the pIC50 with OCI-Ly3 cells was 6.08; in experiment [1], 7.27; in experiment [4] it was 6.67; in the experiment on TMD8 cells, 5.82; in experiment [5], 6.78.

`NC(=O)c1ncc(-n2ncc(C(=O)Nc3cnc(-n4nccn4)c(Cl)c3)c2C(F)(F)F)c2ccsc12` [Cpd 391, 4-(4-((5-chloro-6-(2H-1,2,3-triazol-2-yl)pyridin-3-yl)carbamoyl)-5-(trifluoromethyl)-1H-pyrazol-1-yl)thieno[2,3-c]pyridine-7-carboxamide]: the pIC50 in the experiment with OCI-Ly3 cells was 6.30; in experiment [1] it was 8.15; in experiment [4] it was 7.35; with TMD8 cells, 6.17; in experiment [5], 7.51.

`O=C(Nc1cnc(-n2nccn2)c(Cl)c1)c1cnn(-c2cc[n+]([O-])c3ccccc23)c1C(F)(F)F` [Cpd 405, 4-(4-((5-chloro-6-(2H-1,2,3-triazol-2-yl)pyridin-3-yl)carbamoyl)-5-(trifluoromethyl)-1H-pyrazol-1-yl)quinoline 1-oxide]: the pIC50 with OCI-Ly3 cells was 6.29; in experiment [1] it was 7.36; in experiment [4], 6.34; in the experiment on TMD8 cells, 5.36; in experiment [5], 6.75.

`N#Cc1nccc2c(-n3ncc(C(=O)Nc4cnc(-n5nccn5)c(Cl)c4)c3C(F)(F)F)cccc12` [Cpd 411, N-(5-chloro-6-(2H-1,2,3-triazol-2-yl)pyridin-3-yl)-1-(1-cyanoisoquinolin-5-yl)-5-(trifluoromethyl)-1H-pyrazole-4-carboxamide]: the pIC50 was 6.31 in the experiment on OCI-Ly3 cells; 7.48 in experiment [1]; 5.60 in experiment [4]; 6.06 with TMD8 cells; 5.63 in experiment [5].

As to `Cn1c(=O)cc(-n2ncc(C(=O)Nc3cnc(-n4nccn4)c(Cl)c3)c2C(F)(F)F)c2ccccc21` [Cpd 419, N-(5-chloro-6-(2H-1,2,3-triazol-2-yl)pyridin-3-yl)-1-(1-methyl-2-oxo-1,2-dihydroquinolin-4-yl)-5-(trifluoromethyl)-1H-pyrazole-4-carboxamide], the pIC50 in the experiment on OCI-Ly3 cells is 5.95; in experiment [1], 7.82; in experiment [2] it was 5.78; in the experiment on TMD8 cells, 5.24.

With `N#Cc1cc(NC(=O)c2cnn(-c3nccn4nccc34)c2C(F)(F)F)cnc1-n1nccn1` [Cpd 425, N-(5-cyano-6-(2H-1,2,3-triazol-2-yl)pyridin-3-yl)-1-(pyrazolo[1,5-a]pyrazin-4-yl)-5-(trifluoromethyl)-1H-pyrazole-4-carboxamide], the pIC50 with OCI-Ly3 cells was 6.04; in experiment [1], 6.41; in experiment [4] it was 6.47; with TMD8 cells, 4.96; in experiment [5], 6.95.

Regarding `O=C(Nc1cnc(-c2nccs2)c(Cl)c1)c1cnn(-c2cncc3ccccc23)c1C(F)(F)F` [compound 63, N-(5-chloro-6-(thiazol-2-yl)pyridin-3-yl)-1-(isoquinolin-4-yl)-5-(trifluoromethyl)-1H-pyrazole-4-carboxamide], the pIC50 in the experiment with OCI-Ly3 cells is ~5.94; in experiment [1], 6.53; in experiment [4] it was 5.69; in the experiment on TMD8 cells, < 5.10; in experiment [5], 5.84.
